# Results published in patent US5382586A, “Aryl (or heteroaryl)piperazinylalkylazole derivatives, their preparation and their application as medicaments” (priority 1991, dated 1995).
# How the values were obtained:
# immobility of mice = assay: desperate behaviour test (antidepressant activity); assay type: in vivo, mouse; details: 30 mg/kg, i.p.; p < 0.05; control 118 s
# Procedure: The desperate behaviour test in mice, described by R. D. Porsolt et al. (Arch. Int. Pharmacodyn. 1977, 229, 327-336), is used.
# The animals are placed for 6 minutes in a cylinder containing water, from which they are not able to escape. The period of immobility between minutes 2 and 5 is determined for groups of 10 mice per dosage tested.
# The product studied is administered i.p. 1 hour before the test. In this test the immobility of the animals is explained as being produced by their depressed state resulting from being faced with an adverse and insoluble situation in a hostile environment such as water.
# In our test imipramine (30 mg/kg; i.p.) was used as reference product.
# [1] = system: familiarisation process in mice; assay: light box/dark box test: familiarisation process (improvement of cognition); assay type: in vivo, mouse
# Source text: The influence of this product on the familiarisation process of mice in the light box/dark box test described by J. M. Barnes et al., (Pharmacol. Biochem. Behav., 1990, 35, 955-962) is studied. On the one hand, the effect on learning (the speed of familiarisation) and on the other hand the capacity for blocking contrary effects produced by escopolamine are studied.
# The mouse is placed in the light zone of a box divided into two compartments, one brightly illuminated, the light box, and the other with little illumination, the dark box.
# 1) The number of times the mouse stands up on the hind paws in each compartment during a 5 minute period is counted (see Column 1 of the table below).
# 2) The activity in each compartment is given by counting the number of crossings through the squares which form the divisions of each compartment (see Column 2 of the table below).
# 3) The time passed in the dark box during the 5 minute counting period is determined (see Column 3 of the table below).
# 4) The initial latent period is determined, that is to say the time which elapses after the animal is placed in the light box, at the start of the test, before it enters the dark box (see Column 4 of the table below).
# Two treatments with the vehicle are administered to the control animals per day. Two doses of 0.00001 ng/kg p.o. of compound 42 are administered per day to the animals treated with this product. The same operation is repeated daily for 5 days.
# The animals learn to remain in the dark box for a longer period and to go into the box more rapidly.
# On day six escopolamine (2×0.25 mg/kg, i.p.) is administered.
# They recover the learned habit on day seven.
# [2] = day 6, after 2 treatments with escopolamine (0.25 mg/kg, i.p.), Example 42 at 0.00001 ng/kg p.o. twice per day
smiles,measurement,setting,value
"CN(C)CCCN1c2ccccc2CCc2ccccc21 [Imipramine, reference compound]",Period of immobility,immobility of mice,71 s
"CN1C2CC(OC(=O)C(CO)c3ccccc3)CC1C1OC12 (stereo not drawn) [escopolamine, reference compound]",effect on the learned behaviour (control group),"[1]; 2×0.25 mg/kg, i.p., day six","the animals of the control group ""forget"" the learned behaviour"
same,"Activity within 5 min. period, dark (D)",[1]; [2],30
same,"Activity within 5 min. period, light (L)",[1]; [2],67
same,Latent period L-D,[1]; [2],21
same,"No. of times standing erect within 5 min period, dark (D)",[1]; [2],38
same,"No. of times standing erect within 5 min period, light (L)",[1]; [2],59
same,"Time in the box, dark (D)",[1]; [2],27
"NC(=O)CN1CCCC1=O [Piracetam, reference compound]",cognition-improving activity,[1]; mice,no activity
